The CheMixHub viscosity set

Experiment: xn = mol fraction of the nth substance listed
Conditions: 101 kPa

ClC(Cl)C(Cl)Cl + CC(C)=O
298.15 K
Conditions	viscosity [mPa·s]
x1 = 0.2	0.509
x1 = 0.4	0.811
x1 = 0.6	1.138
x1 = 0.8	1.499

CC=CC(=O)O + CC(C)=O
viscosity [mPa·s]
Conditions	x1 = 0.0488	x1 = 0.1	x1 = 0.1504	x1 = 0.1994	x1 = 0.2534	x1 = 0.2705
298.15 K	0.3461	0.3887	0.4349	0.4858	0.5435	0.5686
303.15 K	0.3299	0.3718	0.4141	0.461	0.5149	0.5368
308.15 K	0.3157	0.3531	0.3935	0.4352	0.4883	0.5066
313.15 K	0.3017	0.3379	0.3756	0.4196	0.463	0.4869
323.15 K	0.2771	0.3079	0.342	0.3849	0.4184	0.438

CNc1ccccc1 + c1ccccc1
298.15 K
Conditions	viscosity [mPa·s]
x2 = 0.069	1.851
x2 = 0.11	1.728
x2 = 0.17	1.601
x2 = 0.264	1.433
x2 = 0.376	1.226
x2 = 0.387	1.202
x2 = 0.428	1.156
x2 = 0.513	1.055
x2 = 0.582	0.966
x2 = 0.697	0.842
x2 = 0.802	0.747
x2 = 0.852	0.71
x2 = 0.93	0.656

Oc1ccccc1 + CC(=O)c1ccccc1
303.15 K
Conditions	viscosity [mPa·s]
x2 = 0.0901	4.976
x2 = 0.2182	4.319
x2 = 0.3102	3.905
x2 = 0.4048	3.519
x2 = 0.5083	3.131
x2 = 0.5936	2.839
x2 = 0.7241	2.404
x2 = 0.7583	2.295
x2 = 0.8846	1.887
